Source: publication PMC3189933, “Acylpeptide Hydrolase Inhibition as Targeted Strategy to Induce Proteasomal Down-Regulation” (PLoS ONE, 2011)

Experiments:
[1] = biological target: T1, partially purified proteasome from Caco-2 cells (Homo sapiens, UniProt P28074); experiment: CT-like activity of partially purified proteasome from Caco-2 cells (cell-free); format: biochemical; details: proteasome 0.12 mg/mL, pre-incubated 30 min at 37°C
T1 construct: a partially purified proteasome fraction from differentiated Caco-2 cells; endogenous in cells; host or cells: Caco-2
T1 sequence (P28074 60-263): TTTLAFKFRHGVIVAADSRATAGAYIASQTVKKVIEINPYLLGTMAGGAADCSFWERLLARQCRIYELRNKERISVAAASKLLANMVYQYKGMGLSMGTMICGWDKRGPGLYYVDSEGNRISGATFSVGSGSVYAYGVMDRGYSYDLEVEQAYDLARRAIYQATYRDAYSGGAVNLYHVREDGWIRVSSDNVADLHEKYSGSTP
Description: APEH from Sulfolobus solfataricus was purified as previously reported. Partial purification of human APEH and proteasome was carried out from protein extracts of Caco-2 cell. Briefly, protein extracts (500 µg) were fractionated by gel filtration chromatography on a Superdex 200 PC 3.2/30 column connected to a SMART System (Pharmacia) equilibrated in buffer 50 mM Tris-HCl, pH 7.5, 100 mM NaCl, at 0.1 mL/min. The eluted fractions were assayed using the specific substrates for APEH and the proteasome. The active fractions were collected and used for further analysis.
Protease inhibitor activities of the SsCEI peptides and the CLA isomers were carried out using a fixed amount of APEH or partially purified proteasome (3–5 nM and 0.12 mg/mL, respectively), and increasing the SsCEI and CLA isomer concentrations. Mixtures were pre-incubated for 30 min at 37°C before the addition of the substrate, and the enzymatic activities were followed as described above. Protease inhibitor activities of the SsCEI peptides and the CLA isomers were determined towards APEHSs. The protease and increasing concentrations of the inhibitors were mixed and preincubated for 30 min at 80°C before the addition of the specific substrate. The residual enzymatic activity was determined using the assay procedure described above.

BHK cells = experiment: Cytotoxicity in BHK cells; format: cell-based, Baby Hamster; details: 100 µM, 24 h or 48 h; data not shown
Description: (§1) The cells were plated in 12-well plates, to a confluence of 60% for the 24-h incubations, and 40% for 48-h exposure to PIs. These treatments were initiated 24-h after the plating of the cells. Phase-contrast images of the cells were taken just before the lysis of the cells for protein analysis, using a Lica DM6000 inverted microscope.

p21Waf1 in Caco-2 cells = experiment: Immunoblot of p21Waf1 in Caco-2 cells; format: cell-based, human; details: 200 µM alone, 48 h
Description: The following antibodies were used: anti-APEH antibody (sc-102311; Santa Cruz Biotechnology); anti-NF-κB/p65 antibody (Thermo Scientific); anti-p21Waf1 antibody (Exbio); pan Ab-5 anti-actin antibody (clone ACTN05, Thermo Scientific); and monoclonal antibodies against polyubiquitinylated proteins conjugated with horseradish peroxidase (FK2H, Enzo, Life Science). The ΔF508CFTR-3HA protein was detected with an anti HA monoclonal antibody (Covance).

[2] = tested on: ΔF508 CFTR-3HA (CFTR-M) in BHK cells; experiment: CFTR-M accumulation in BHK cells (immunoblot); format: cell-based, Baby Hamster; details: 100 µM, 24 h, densitometry vs untreated
Description: as §1

In the case of CCCCC/C=C\C=C\CCCCCCCCC(=O)O [t10c12-CLA, trans10-cis12 CLA], the “effect on partially purified proteasome CT-like activity” value [1] is reported as “not affected”, the “cytotoxic effects in BHK cells” value (BHK cells) is reported as “without any cytotoxic effects” and the “increase of p21Waf1” value (p21Waf1 in Caco-2 cells) is reported as “two”. The “increase of CFTR-M levels” value [2] was “five”.
